Source: ChEMBL document CHEMBL1157355, “Recent advances on phosphodiesterase 4 inhibitors for the treatment of asthma and chronic obstructive pulmonary disease” (J Med Chem, 2008)
Blank lines part the entries; values can stand above or below the molecule they belong to.

Columns and labels:
Cavia porcellus [1] = assay: Inhibition of aerosolized antigen-induced airway obstruction in po dosed guinea pig; assay type: functional
Rhesus monkey [2] = assay: Reduction in IL1-beta response to antigen challenge in atopic monkey at 10 mg/kg, po; assay type: functional, Macaca mulatta; design: scale not given: the % may be the effect or the level left
Rhesus monkey [3] = assay: Reduction in eosinophil response to antigen challenge in atopic monkey at 10 mg/kg, po; assay type: functional, Macaca mulatta; design: scale not given: the % may be the effect or the level left
Rhesus monkey [4] = assay: Reduction in neutrophil response to antigen challenge in atopic monkey at 10 mg/kg, po; assay type: functional, Macaca mulatta; design: scale not given: the % may be the effect or the level left
Ovis aries [5] = assay: Inhibition of ascaris-induced bronchoconstriction in sheep at 2 mg/kg, iv; assay type: functional
Ovis aries [6] = assay: Inhibition of ascaris-induced early bronchoconstriction in sheep at 0.5 mg/kg, iv; assay type: functional
Cavia porcellus [7] = assay: Inhibition of ovalbumin-induced bronchoconstriction in guinea pig at 0.1 mg/kg, ip; assay type: functional; details: route intraperitoneal
Squirrel monkey [8] = assay: Inhibition of ascaris-induced bronchoconstriction in squirrel monkey at 3 mg/kg, po; assay type: functional; details: Saimiri sciureus, in Primates
[9] = Half life in squirrel monkey; assay type: ADME, organism-based, Saimiri sciureus; details: in vivo
Cavia porcellus [10] = assay: Inhibition of ovalbumin-induced bronchoconstriction in guinea pig at 1 mg/kg, ip; assay type: functional; details: route intraperitoneal
[11] = Half life in dog; assay type: ADME, organism-based, Canis lupus familiaris; details: in vivo
Ovis aries [12] = assay: Inhibition of ascaris-induced late bronchoconstriction in sheep at 0.5 mg/kg, iv; assay type: functional
[13] = Half life in rat; assay type: ADME, organism-based; details: in vivo
[14] = Inhibition of PDE4
[15] = Displacement of [3H]rolipram from PDE4 by RBA
Blood [16] = assay: Inhibition of TNFalpha release in human whole blood; assay type: functional, tissue-based
[17] = Selectivity for PDE4D over PDE4A
Rattus norvegicus [18] = assay: Inhibition of gastric emptying in po dosed rat; assay type: functional; details: Stomach, read-out: ID50 (the source's name)
[19] = Selectivity for PDE4D over PDE4C
[20] = Selectivity for PDE4D over PDE4B
Phosphodiesterase 3 = Phosphodiesterase 3 (Homo sapiens, UniProt Q14432+Q13370); assay: Inhibition of PDE3 in human platelet
[21] = Inhibition of PDE4 in dog trachea; assay type: tissue-based, Canis lupus familiaris
[22] = Displacement of [3H]rolipram from PDE4 at 10 uM by RBA
Rattus norvegicus [23] = assay: Inhibition of LPS-induced pulmonary inflammation in rat at 3 mg/kg, po; assay type: functional
[24] = Inhibition of PDE11
[25] = Inhibition of PDE10
Cavia porcellus [26] = assay: Inhibition of eosinophil infiltration in guinea pig at 30 umol/kg, ip; assay type: functional
[27] = Oral bioavailability in rat; assay type: ADME, organism-based; details: in vivo
[28] = Oral bioavailability in guinea pig; assay type: ADME, organism-based, Cavia porcellus; details: in vivo
Rattus norvegicus [29] = assay: Inhibition of LPS-induced TNFalpha production in po dosed rat; assay type: functional
Rattus norvegicus [30] = species: Rattus norvegicus; assay: Reduction in antigen-induced eosinophil recruitment in Brown-Norway rat model; assay type: functional
[31] = Ratio of IC50 for PDE3 to IC50 for PDE4
Cavia porcellus [32] = assay: Antispasmogenic activity in intradermally dosed guinea pig assessed as reduction of histamine-induced bronchoconstriction; assay type: functional
Cavia porcellus [33] = assay: Antispasmogenic activity in iv dosed guinea pig assessed as reduction of antigen-induced bronchoconstriction; assay type: functional
[34] = Oral bioavailability in rat at 3 mg/kg after 6 hrs; assay type: ADME, organism-based; details: in vivo
Squirrel monkey [35] = assay: Inhibition of ascaris-induced bronchoconstriction in squirrel monkey at 0.5 mg/kg, po; assay type: functional; details: Saimiri sciureus, in Primates
[36] = target: T1, 3',5'-cyclic-AMP phosphodiesterase 4A (Homo sapiens, UniProt P27815); assay: Inhibition of GST-tagged PDE4A
T1 sequence (P27815 whole entry): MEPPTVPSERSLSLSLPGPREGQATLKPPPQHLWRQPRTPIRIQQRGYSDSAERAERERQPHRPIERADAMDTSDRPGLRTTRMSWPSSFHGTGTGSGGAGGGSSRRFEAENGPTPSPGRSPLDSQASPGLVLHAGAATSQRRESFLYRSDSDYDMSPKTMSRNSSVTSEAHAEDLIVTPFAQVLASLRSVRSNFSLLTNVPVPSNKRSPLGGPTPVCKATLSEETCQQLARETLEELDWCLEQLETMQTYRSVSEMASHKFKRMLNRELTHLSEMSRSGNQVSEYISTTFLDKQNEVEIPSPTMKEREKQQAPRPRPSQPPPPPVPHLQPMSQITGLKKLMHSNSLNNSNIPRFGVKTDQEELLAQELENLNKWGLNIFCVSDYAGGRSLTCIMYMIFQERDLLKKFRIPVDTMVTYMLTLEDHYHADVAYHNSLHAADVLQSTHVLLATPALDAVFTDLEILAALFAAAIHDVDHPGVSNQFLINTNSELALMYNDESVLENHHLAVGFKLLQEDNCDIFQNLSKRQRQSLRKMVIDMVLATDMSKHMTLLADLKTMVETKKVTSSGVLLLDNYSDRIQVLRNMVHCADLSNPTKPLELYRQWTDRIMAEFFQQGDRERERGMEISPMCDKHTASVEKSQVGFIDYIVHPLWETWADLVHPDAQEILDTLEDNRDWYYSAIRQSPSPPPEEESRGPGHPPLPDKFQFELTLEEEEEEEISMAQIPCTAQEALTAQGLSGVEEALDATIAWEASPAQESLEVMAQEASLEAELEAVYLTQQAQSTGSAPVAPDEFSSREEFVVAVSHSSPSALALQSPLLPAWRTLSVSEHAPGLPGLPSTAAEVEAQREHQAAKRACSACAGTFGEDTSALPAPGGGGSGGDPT

Phosphodiesterase 4 = Phosphodiesterase 4 (Homo sapiens, UniProt P27815+Q08499+Q07343+Q08493); assay: Inhibition of PDE4 in human neutrophil; assay type: protein assay
Mus musculus = assay: Antiinflammatory activity in po dosed mouse assessed as inhibition of arachidonic acid-induced ear edema at 30 umol/kg; assay type: functional; design: scale not given: the % may be the effect or the level left
Blood [37] = assay: Inhibition of fMLP-induced LTB4 biosynthesis in human whole blood; assay type: functional, tissue-based
Blood [38] = assay: Inhibition of LPS-induced TNFalpha release in human whole blood; assay type: functional, tissue-based
[39] = target: T1, 3',5'-cyclic-AMP phosphodiesterase 4A; assay: Inhibition of human PDE4A
[40] = target: 3',5'-cyclic-AMP phosphodiesterase 4C (Homo sapiens, UniProt Q08493); assay: Inhibition of human PDE4C
Sequence of 3',5'-cyclic-AMP phosphodiesterase 4C (Q08493 whole entry): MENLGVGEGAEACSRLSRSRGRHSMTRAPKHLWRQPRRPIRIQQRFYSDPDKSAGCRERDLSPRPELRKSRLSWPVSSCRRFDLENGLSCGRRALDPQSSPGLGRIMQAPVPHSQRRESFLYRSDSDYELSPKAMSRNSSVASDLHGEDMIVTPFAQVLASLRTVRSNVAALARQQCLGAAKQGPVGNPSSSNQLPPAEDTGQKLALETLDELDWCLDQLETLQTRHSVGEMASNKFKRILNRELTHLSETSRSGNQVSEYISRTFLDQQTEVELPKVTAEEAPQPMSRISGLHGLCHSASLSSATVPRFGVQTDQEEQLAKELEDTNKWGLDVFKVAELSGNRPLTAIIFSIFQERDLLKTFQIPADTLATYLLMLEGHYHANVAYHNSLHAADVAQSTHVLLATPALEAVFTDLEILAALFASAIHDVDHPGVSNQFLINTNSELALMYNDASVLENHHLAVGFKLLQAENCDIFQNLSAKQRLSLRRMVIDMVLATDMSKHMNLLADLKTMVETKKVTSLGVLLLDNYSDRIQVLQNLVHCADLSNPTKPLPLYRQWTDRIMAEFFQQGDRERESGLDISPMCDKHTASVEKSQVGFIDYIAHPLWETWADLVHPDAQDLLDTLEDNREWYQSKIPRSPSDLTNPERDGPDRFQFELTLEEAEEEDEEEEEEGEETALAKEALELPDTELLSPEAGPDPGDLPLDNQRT

[41] = target: 3',5'-cyclic-AMP phosphodiesterase 4D (Homo sapiens, UniProt Q08499); assay: Inhibition of human PDE4D
Sequence of 3',5'-cyclic-AMP phosphodiesterase 4D (Q08499 whole entry): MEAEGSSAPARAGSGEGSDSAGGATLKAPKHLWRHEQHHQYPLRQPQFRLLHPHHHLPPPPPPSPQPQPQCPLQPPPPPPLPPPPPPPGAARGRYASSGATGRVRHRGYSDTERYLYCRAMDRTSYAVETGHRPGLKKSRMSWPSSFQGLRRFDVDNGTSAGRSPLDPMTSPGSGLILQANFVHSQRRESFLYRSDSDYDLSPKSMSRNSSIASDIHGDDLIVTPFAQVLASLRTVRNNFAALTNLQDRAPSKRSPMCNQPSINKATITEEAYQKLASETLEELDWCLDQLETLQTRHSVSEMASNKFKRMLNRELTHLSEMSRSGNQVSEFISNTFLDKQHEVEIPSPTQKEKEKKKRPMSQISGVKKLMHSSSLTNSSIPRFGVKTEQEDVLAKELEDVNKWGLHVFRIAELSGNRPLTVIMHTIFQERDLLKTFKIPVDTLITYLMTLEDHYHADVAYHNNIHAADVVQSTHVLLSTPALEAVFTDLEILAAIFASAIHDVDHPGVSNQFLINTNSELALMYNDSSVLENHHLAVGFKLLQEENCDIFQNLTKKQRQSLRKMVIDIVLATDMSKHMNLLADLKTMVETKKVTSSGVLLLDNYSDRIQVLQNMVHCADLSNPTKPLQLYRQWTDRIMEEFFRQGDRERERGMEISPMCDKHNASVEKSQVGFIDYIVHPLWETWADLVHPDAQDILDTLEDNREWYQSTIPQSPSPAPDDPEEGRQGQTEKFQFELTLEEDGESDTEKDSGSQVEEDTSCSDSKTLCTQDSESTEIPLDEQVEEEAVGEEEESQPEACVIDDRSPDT

Structure (SMILES): CCc1nn(C2CCCC2)c2c1CCN(c1ccccc1C)C2=O
- ED50 (Cavia porcellus [1]): 2 mg/kg
- Activity (Rhesus monkey [2]): 82%
- Activity (Rhesus monkey [3]): 55%
- Activity (Rhesus monkey [4]): 65%

Structure (SMILES): [O-][n+]1ccc(CC(c2ccc(C(O)(C(F)(F)F)C(F)(F)F)cc2)c2ccc(OC(F)F)c(OC(F)F)c2)cc1 (stereo not given)
- inhibition in vivo at 2 mg/kg (Ovis aries [5]): 85%
- inhibition in vivo at 0.5 mg/kg (Ovis aries [6]): 64%
- inhibition in vivo at 0.1 mg/kg (Cavia porcellus [7]): 54%
- inhibition in vivo at 3 mg/kg (Squirrel monkey [8]): 96%
- half-life [9]: > 48 h
- inhibition in vivo at 1 mg/kg (Cavia porcellus [10]): 58%
- half-life [11]: > 48 h
- inhibition in vivo at 0.5 mg/kg (Ovis aries [12]): 97%
- half-life [13]: > 48 h

Structure (SMILES): COc1ccc([C@]2(C#N)C[C@H]3C[C@@H](C(=O)O)C[C@H]3C2)cc1OC1CCCC1
- IC50 (Blood [16]; read-out: ID50 (the source's name)): 21000 nM
- IC50 [14]: 9 nM

Structure (SMILES): COc1ccc([C@]2(C#N)CC[C@@H](C(=O)O)CC2)cc1OC1CCCC1 [CILOMILAST]
- Selectivity ratio [17]: 10
- ED50 (Rattus norvegicus [18]): 4.7 mg/kg
- IC50 (Blood [16]; read-out: IC50): 840 nM
- IC50 [14]: 65 nM
- Selectivity ratio [19]: 10
- Selectivity ratio [20]: 10

Structure (SMILES): COc1cc2c3c(c1)C(c1ccccc1)=N[C@@H](NC(=O)c1cccnc1)C(=O)N3CC2
- IC50 [14]: 4300 nM

Structure (SMILES): COc1cc(-c2ccc(=O)[nH]n2)ccc1OC(F)F [ZARDAVERINE]
- pIC50 (Phosphodiesterase 3): 6.24
- pIC50 [21]: 6.8

Structure (SMILES): COc1ccc(-c2nc(C(=O)N3CCN(c4ncccn4)CC3)c(CN)o2)c2ccc(C(F)(F)F)nc12
- inhibition in vivo at 3 mg/kg (Rattus norvegicus [23]): 64%
- IC50 [24]: 2000 nM
- IC50 [25]: 430 nM

Structure (SMILES): COc1ccc(C(=O)Nc2c(Cl)cncc2Cl)c2ccc(C(F)(F)F)nc12
- bioavailability [28]: 78%
- IC50 [14]: 51 nM
- IC50 [15]: 77 nM

Structure (SMILES): COc1ccc(C(=O)Nc2c(Cl)cncc2Cl)c2cccnc12
- IC50 [14]: 170 nM

Structure (SMILES): Cc1noc(/C(=C/c2cccc(-c3cc(C(C)(C)S(C)(=O)=O)cc4cccnc34)c2)c2ccc(S(C)(=O)=O)cc2)n1
- IC50 [14]: 3 nM

Structure (SMILES): Nc1cc2c3c(c1)C(c1ccccc1)=N[C@@H](NC(=O)c1cccnc1)C(=O)N3CC2
- ED50 (Rattus norvegicus [29]): 2.8 mg/kg
- IC50 [14]: 270 nM
- ED50 (Rattus norvegicus [30]): 3.2 mg/kg

Structure (SMILES): CCOc1cc2cc(CO)c(CO)c(-c3ccnc(-n4nc(-c5cccnc5)c5ccccc5c4=O)c3)c2cc1OCC
- Ratio IC50 [31]: 14000
- IC50 [14]: 0.13 nM
- ED50 (Cavia porcellus [32]): 0.033 mg/kg
- ED50 (Cavia porcellus [33]): 0.063 mg/kg

Structure (SMILES): Cc1c[n+]([O-])ccc1CC(c1ccc(C(O)(C(F)(F)F)C(F)(F)F)cc1)c1ccc(OC(F)F)c(OC(F)F)c1 (stereo not given)
- inhibition in vivo at 2 mg/kg (Ovis aries [5]): 62%
- half-life [9]: 36 h
- inhibition in vivo at 1 mg/kg (Cavia porcellus [10]): 82%
- bioavailability [34]: 60%
- inhibition in vivo at 0.5 mg/kg (Squirrel monkey [35]): 26%

Structure (SMILES): CC(C)(Nc1ccc(C(Cc2cc[n+]([O-])cc2)c2ccc(OC(F)F)c(OC(F)F)c2)cc1)c1ccccc1 (stereo not given)
- IC50 [36]: 0.8 nM

The next lines start with results.

- IC50 [14]: 4200 nM
- Ki [15]: 1020 nM
Structure (SMILES): Cc1ccccc1-n1c(=O)n(Cc2cccs2)c(=O)c2[nH]cnc21

- IC50 [14]: 700 nM
- Ki [15]: 2800 nM
Structure (SMILES): COc1ccc(C2(Cc3ccncc3)C(=O)N(C(=O)OC(C)(C)C)c3ccccc32)cc1OC1CCCC1 (stereo not given)

- IC50 [14]: 6000 nM
- RBA [22]: 14%
Structure (SMILES): COc1ccc(S(=O)(=O)NC2CCc3ccccc32)cc1OC (stereo not given)

- IC50 (Blood [16]; read-out: IC50): 46 nM
- IC50 [14]: 37 nM
- bioavailability [27]: 27%
- Ki [15]: 271 nM
Structure (SMILES): Oc1ccc2c(Cc3c(Cl)cncc3Cl)nnc(-c3ccccc3)c2c1
- inhibition in vivo at 30 µmol/kg (Cavia porcellus [26]): 34%

- IC50 (Blood [16]; read-out: IC50): 200000 nM
Structure (SMILES): O=C1CCC(N2C(=O)c3ccccc3C2=O)C(=O)N1 (stereo not given) [THALIDOMIDE]

- pIC50 (Phosphodiesterase 3): 7.5
- pIC50 (Phosphodiesterase 4): 7.8
Structure (SMILES): COc1ccc(C2=NN(CCCCc3ccc(C4=NNC(=O)CC4C)cc3)C(=O)C3CC=CCC23)cc1Cl (stereo not given)
- Activity (Mus musculus): 47%

- IC50 (Blood [37]): 2500 nM
- IC50 (Blood [38]): 6200 nM
- IC50 [39]: 54 nM
- IC50 [40]: 239 nM
- IC50 [41]: 166 nM
Structure (SMILES): CC(C)C(=O)c1c(C(C)C)nn2ccccc12 [IBUDILAST]
